Experimental data reported in paper PMC10065799, “High-throughput profiling of sequence recognition by tyrosine kinases and SH2 domains using bacterial peptide display” (eLife, 2023).
Read-outs that look alike come from different tables or passages of the source. Square brackets hold non-standard residues; d marks the D form. pY = N[C@@H](Cc1ccc(OP(=O)(O)O)cc1)C(=O)O

Experiments:
c-Src kinase domain = c-Src kinase domain (Homo sapiens, UniProt P12931); test: pTyr-Var library bacterial peptide display kinase screen (enrichment scores); format: biochemical;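 further: log2 fold change in enrichment of variant over reference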
EPHB1 kinase domain = test: as above; format: biochemical, human; details: for Screen: sheet EPHB1, effect of the variant peptide relative to its reference peptide in the pTyr-Var library screen (enrichment scores); for Screen (variant relative to reference peptide, measured in the pTyr-Var library screen): sheet "EPHB1", variant seq vs reference seq, bacterial peptide display enrichment
EPHB2 kinase domain = test: as above; format: biochemical, human; details: sheet EPHB2;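 further: log2 fold change in enrichment of variant over reference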
Fer kinase domain = test: as above; format: biochemical, mouse; details: sheet "Fer"
[1] = target: human c-Src SH2 domain (residues 143-250) (human, UniProt P12931-1 143-250, biotin on the Avi tag (co-expression with the biotin ligase BirA)); test: fluorescence polarisation; competition: unlabeled phosphopeptide serially diluted against 30 nM fluorescent peptide and 240 nM (1.5 x KD) c-Src SH2; same buffer; 25 °C; cubic binding equation; details: both partners purified
[2] = sheet "Src", effect of the variant peptide relative to its reference peptide in the pTyr-Var library screen
[3] = effect of variant peptide relative to its reference peptide in the pTyr-Var library screen (enrichment scores)
[4] = value of the variant peptide against its reference peptide in the pTyr-Var library screen with Fer
[5] = sheet "Src", variant peptide versus its reference peptide in the pTyr-Var library screen
[6] = variant peptide relative to its reference peptide, pTyr-Var library screen enrichment
[7] = effect of the variant relative to its reference peptide in the pTyr-Var library screen

Row | Molecule | Screen (c-Src kinase domain; [2]) | Screen (EPHB1 kinase domain) | Screen (EPHB2 kinase domain; [3]) | Screen (Fer kinase domain; [4]) | also measured
1 | MGGSLYFSFPD [HIKESHI_Y55_V54L_YF] | 0.1907 | 2.816 | 2.441 |  | 
2 | MKDLTYSSLCF [ALOX5_Y446_A447S] | 0.1056 | 0.1163 | 0.3665 | 1.165 | 
3 | MWGSDYVHLSR [MAP3K4_Y582_Q584H] |  | -1.547 | -2.255 |  | 
4 | PIAPVYAPSMV [ACAT1_Y331_A333P] |  | -0.08214 | 0.3731 | 1.079 | Screen (c-Src kinase domain): -0.325
5 | QAPPIYLDVLG [NTRK1_Y791_V790I] |  | 1.721 | 1.355 | 2.26 | Screen (c-Src kinase domain; [5]): 1.261
6 | QGFDTYFGFLL [ARSB_Y165_R160Q_YF] | 0.07217 | 0.1277 | 0.8549 | 0.9524 | 
7 | QMVGMYAFSFM [AVPR2_Y124_S126F_YF] | -0.3615 | 0.9458 | 0.9949 | 2.024 | 
8 | QNTADYFDLFG [PTPN11_Y62_G60A_YF] |  | -0.5569 | -0.5539 |  | Screen (c-Src kinase domain; [5]): -1.145
9 | QNTGNYFDLFG [PTPN11_Y62_D61N_YF] |  | 0.2097 | 0.1444 |  | Screen (c-Src kinase domain; [5]): -1.162
10 | QPDLLYDHIQP [TRRAP_Y862_F860L] |  |  |  |  | Screen (c-Src kinase domain; [5]): 0.81; Screen (Fer kinase domain; [6]): 1.063; Screen (variant relative to reference peptide, measured in the pTyr-Var library screen) (EPHB1 kinase domain): 1.53; Screen (EPHB2 kinase domain; [7]): 2.501
11 | QVQQIYSDSDL [MIB1_Y376_R371Q] | 0.02886 |  | 1.36 | 0.8951 | 
12 | RLEPVYFVAPA [LAMC2_Y250_D247E] | -0.2779 | 0.4539 | 0.4501 |  | 
13 | RQQQDYWLMDV [ANPEP_Y600_I603M] |  | -0.3 | -0.2938 | -1.652 | 
14 | SAAAIYMVRHP [PMP22_Y117_T118M] |  | 2.191 | 1.843 |  | Screen (c-Src kinase domain; [5]): -0.2351
15 | TSIGNYFKPWF [DHCR24_Y299_N294T_YF] |  | 0.02902 | -0.167 |  | 
16 | TSKLSYLDPRI [TOP1_Y723_N722S] |  |  |  |  | Screen (variant relative to reference peptide, measured in the pTyr-Var library screen) (EPHB1 kinase domain): -2.938; Screen (EPHB2 kinase domain; [7]): -1.966
17 | VFDHIYTTQSD [RET_Y928_L923V] |  |  | -2.18 |  | Screen (c-Src kinase domain; [5]): -1.024; Screen (Fer kinase domain; [6]): -1.691
18 | VNNLVYENING [FRS2_Y306_K303N] | 1.603 | 1.417 | 2.712 | 1.713 | 
19 | VVTGPYEKPSL [KIR3DS1_Y221_L220P] |  | -2.822 | -3.858 | -4.323 | 
20 | WASGIYFVPKG [APBB1IP_Y340_R335W_YF] | 0.1676 | 1.089 | 2.1 | 2.226 | 
21 | Ac-QRKQQL[pY]TAMEEG-NH2 (SMILES CSCC[C@H](NC(=O)[C@H](C)NC(=O)[C@@H](NC(=O)[C@H](Cc1ccc(OP(=O)(O)O)cc1)NC(=O)[C@H](CC(C)C)NC(=O)[C@H](CCC(N)=O)NC(=O)[C@H](CCC(N)=O)NC(=O)[C@H](CCCCN)NC(=O)[C@H](CCCNC(=N)N)NC(=O)[C@H](CCC(N)=O)NC(C)=O)[C@@H](C)O)C(=O)N[C@@H](CCC(=O)O)C(=O)N[C@@H](CCC(=O)O)C(=O)NCC(N)=O, source: synthetic peptide (synthesized in-house, RP-HPLC purified)) [CCDC39_Y593 phosphopeptide Ac-QRKQQL(pY)TAMEEG-NH2] |  |  |  |  | binding result [1]: binds
22 | Ac-QSLEKS[pY]ELPDGG-NH2 (SMILES CC(=O)N[C@@H](CCC(N)=O)C(=O)N[C@@H](CO)C(=O)N[C@@H](CC(C)C)C(=O)N[C@@H](CCC(=O)O)C(=O)N[C@@H](CCCCN)C(=O)N[C@@H](CO)C(=O)N[C@@H](Cc1ccc(OP(=O)(O)O)cc1)C(=O)N[C@@H](CCC(=O)O)C(=O)N[C@@H](CC(C)C)C(=O)N1CCC[C@H]1C(=O)N[C@@H](CC(=O)O)C(=O)NCC(=O)NCC(N)=O, source: synthetic peptide (synthesized in-house, RP-HPLC purified)) [ACTB_Y240 phosphopeptide Ac-QSLEKS(pY)ELPDGG-NH2] |  |  |  |  | binding result [1]: binds
23 | Ac-QSLEKS[pY]ELLDGG-NH2 (SMILES CC(=O)N[C@@H](CCC(N)=O)C(=O)N[C@@H](CO)C(=O)N[C@@H](CC(C)C)C(=O)N[C@@H](CCC(=O)O)C(=O)N[C@@H](CCCCN)C(=O)N[C@@H](CO)C(=O)N[C@@H](Cc1ccc(OP(=O)(O)O)cc1)C(=O)N[C@@H](CCC(=O)O)C(=O)N[C@@H](CC(C)C)C(=O)N[C@@H](CC(C)C)C(=O)N[C@@H](CC(=O)O)C(=O)NCC(=O)NCC(N)=O, source: synthetic peptide (synthesized in-house, RP-HPLC purified)) [ACTB_Y240_P243L phosphopeptide Ac-QSLEKS(pY)ELLDGG-NH2] |  |  |  |  | binding result [1]: binds
